# Reference: patent publication US20110318375A1, “Immunomodulatory Therapeutic Agents” (priority 2009, published 2011)
# Entries after “also recorded” stand apart in the source; their conditions may differ. No end group written: not given here. PEG = not defined here
# How the values were obtained:
# Ponto Toro Virus = assay type: in vivo, mice; conditions: mouse, in vivo
# cytokine panels = assay: Cytokine panels for 24 hours after synthetic imf-C3, healthy volunteer; assay type: in vivo, human; conditions: followed for 24 hours
# Experimental: After getting back the results of the Ponto Toro test and seeing no results from imf-C3, a healthy volunteer was given synthetic imf-C3 and cytokine panels were followed for 24 hours.
# [1] = test system: Experimental Allergic Encephalomyelitis (EAE); assay: Acute Experimental Allergic Encephalomyelitis mouse model; assay type: in vivo, mice; conditions: subcutaneous, dosed daily, every 3 days and weekly
# From the text: The carboxy terminus of activated Fibrinopeptide A was considered to be the active portion of the peptide, the carboxy terminus was PEGylate (addition of Poly Ethylene Glycol). This molecule was used to perform an EAE study. This study was designed to mimic the study done by Ruhenstroth-Bauer in 1981 utilizing two of these peptides, and showing some albeit mild benefit. The synthetic PEGylated peptide was expected to perform considerably better than the non-PEGylated peptide. Synthetic non-PEGylated peptide A was used as a positive control to compare the PEGylated verses non-PEGylated peptides. The medications were administered subcutaneously, due to this route having some efficacy in the cytokine profiles.
# Test article 2 (PEGylated peptide) dosed daily, every 3 days and weekly never even approached statistically significant benefit.
# During the first 22 days of the study EAE development in mice treated with test article 1 (daily non-PEGylated peptide A) was very similar to the vehicle-treated mice. […] Disease worsened in test article 1-treated mice on days 27 and 28 and became very similar to disease severity to the mice in the vehicle-treated group.
Substance,results of the Ponto Toro test (Ponto Toro Virus),changes in cytokine panels (cytokine panels),EAE development / activity versus vehicle-treated mice [1],EAE development / activity versus vehicle-treated mice ([1]; listed as PEGylated Fibrinopeptide A)
SEETKENERFTV [imf-C3],no results,did not demonstrate in any changes,,
"PEGylated peptide: activated Fibrinopeptide A with Poly Ethylene Glycol added to the carboxy terminus (ADSGEGDFLAEGGGVR-{PEG}; reading uncertain; UniProt P02671 20-35, looked up)",,,little or no response; also recorded: no activity,decrease any measurable activity
